According to BindingDB's records for doi:10.1021/jm00398a021 (Bristol-Myers, 1988):

Target: D(2) dopamine receptor (Rattus norvegicus, UniProt P61169)
Assay: ChEBML_58532
Description: Ability to inhibit [3H]spiperone binding to Dopamine receptor D2 in rat corpus striatum

Chain of D(2) dopamine receptor (P61169 whole entry): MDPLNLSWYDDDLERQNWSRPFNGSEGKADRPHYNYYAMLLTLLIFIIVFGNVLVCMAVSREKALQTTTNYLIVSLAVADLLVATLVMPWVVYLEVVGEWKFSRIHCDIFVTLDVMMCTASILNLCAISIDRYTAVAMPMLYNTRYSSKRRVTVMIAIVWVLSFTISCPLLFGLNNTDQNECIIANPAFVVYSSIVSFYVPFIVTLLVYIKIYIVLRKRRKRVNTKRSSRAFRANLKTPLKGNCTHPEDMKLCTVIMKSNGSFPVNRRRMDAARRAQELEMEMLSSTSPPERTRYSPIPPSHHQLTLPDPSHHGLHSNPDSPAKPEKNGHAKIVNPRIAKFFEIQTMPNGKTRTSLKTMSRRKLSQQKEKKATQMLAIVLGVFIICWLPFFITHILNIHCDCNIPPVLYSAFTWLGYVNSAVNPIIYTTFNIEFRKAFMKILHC

- IC50: > 1000 nM
SMILES: O=c1scc(O)n1CCCCN1CCN(c2ccccn2)CC1
